US8772268B2, “Bisphosphonamidate prodrugs and uses thereof” (The Johns Hopkins University, priority 2010, dated 2014)

Test system: M14
Assay: NCI-60 DTP Human Tumor Cell Line Screen
Type: cell-based
Conditions: M14, Melanoma, 48 h

CN(CCCCCl)P(=O)(OCc1ccc([N+](=O)[O-])cc1)C(Cl)(Cl)P(=O)(OCc1ccc([N+](=O)[O-])cc1)N(C)CCCCCl (stereo not drawn) [compound 14]
Log10GI50: −5.40 | Log10LC50: >−4.00 | Log10TGI: >−4.00
